Literature values in patent US8481087B2, “Withania somnifera plant extract and method of preparation thereof” (National Brain Research Centre, priority 2008, dated 2013).

Tested on: severely damaged neurons
Details: severely damaged neurons in vitro

CC1=C(C)C(=O)O[C@@H]([C@](C)(O)[C@H]2CC[C@H]3[C@@H]4[C@@H]5O[C@@H]5[C@@]5(O)CC=CC(=O)[C@]5(C)[C@H]4CC[C@]23C)C1 [Withanolide-A]
neurite regeneration and synapse reconstruction: regenerate neurites and reconstruct synapses
